In patent US20250092002A1, “FLUORINATED CATIONIC LIPIDS FOR USE IN LIPID NANOPARTICLES” (Acuitas Therapeutics, Inc., priority 2021, published 2025):
Marks after values point to notes of the source that are not given here.

Experiments:
[1] = Determination of pKa of formulated lipids (TNS fluorescence assay in lipid nanoparticles); assay type: physicochemical; conditions: probe 2-(p-toluidino)-6-napthalene sulfonic acid (TNS), 1 µM final, cationic lipid formulated in lipid nanoparticles (cationic lipid/DSPC/cholesterol/PEG-lipid 47.5/10/40.7/1.8 mol %), read-out: pKa
Procedure: As described elsewhere, the pKa of formulated cationic lipids is correlated with the effectiveness of LNPs for delivery of nucleic acids (see Jayaraman et al, Angewandte Chemie, International Edition (2012), 51(34), 8529-8533; Semple et al, Nature Biotechnology 28, 172-176 (2010)). The preferred range of pKa is ˜5 to ˜7. The pKa of each cationic lipid was determined in lipid nanoparticles using an assay based on fluorescence of 2-(p-toluidino)-6-napthalene sulfonic acid (TNS). Lipid nanoparticles comprising cationic lipid/DSPC/cholesterol/PEG-lipid (47.5/10/40.7/1.8 mol %) in PBS at a concentration of 0.4 mM total lipid were prepared using the in-line process as described in Example 1. TNS was prepared as a 100 μM stock solution in distilled water. Vesicles were diluted to 24 μM lipid in 2 mL of buffered solutions containing, 10 mM HEPES, 10 mM MES, 10 mM ammonium acetate, 130 mM NaCl, where the pH ranged from 2.5 to 11. An aliquot of the TNS solution was added to give a final concentration of 1 μM and following vortex mixing fluorescence intensity was measured at room temperature in a SLM Aminco Series 2 Luminescence Spectrophotometer using excitation and emission wavelengths of 321 nm and 445 nm. A sigmoidal best fit analysis was applied to the fluorescence data and the pKa was measured as the pH giving rise to half-maximal fluorescence intensity.

[2] = tested on: luciferase expression in the liver; test: In vivo luciferase mRNA expression rodent model (liver luciferase after tail vein injection of mRNA-LNP); parameters: species or system mice; conditions: for Liver Luc (ng luc/g liver), determined at 0.3 mg/kg: 0.3 mg/kg (footnote *); for Liver Luc (ng luc/g liver), determined at 0.3 mg/kg / Liver Luc (ng luc/g liver), determined at 1.0 mg/kg / Liver Luc @ 0.5 mg/kg (ng luc/g liver): tail vein injection, liver 4 hours after administration; for efficacy toward activation of the Luciferase mRNA expression as compared with non-fluorinated analogue: 0.3 mg/kg and 1.0 mg/kg, versus I-5 analogue and I-11 analogue respectively; for Liver Luc @ 0.5 mg/kg (ng luc/g liver): 0.5 mg mRNA/kg
Procedure: Lipid nanoparticles were prepared and tested according to the general procedures described in PCT Pub. Nos. WO 2015/199952 and WO 2017/004143, the full disclosures of which are incorporated herein by reference. Briefly, cationic lipid, DSPC, cholesterol and PEG-lipid were solubilized in ethanol at a molar ratio of about 50:10:38.5:1.5 or about 47.5:10:40.7:1.8. Lipid nanoparticles (LNP) were prepared at a total lipid to mRNA weight ratio of approximately 10:1 to 40:1. The mRNA is diluted to 0.2 mg/mL in 10 to 50 mM citrate or acetate buffer, pH 4. Syringe pumps were used to mix the ethanolic lipid solution with the mRNA aqueous solution at a ratio of about 1:5 to 1:3 (vol/vol) with total flow rates above 15 mL/min. The ethanol was then removed and the external buffer replaced with PBS by dialysis. Finally, the lipid nanoparticles were filtered through a 0.2 µm pore sterile filter. Lipid nanoparticle particle size was approximately 55-95 nm diameter, and in some instances approximately 70-90 nm diameter as determined by quasi-elastic light scattering using a Malvern Zetasizer Nano ZS (Malvern, UK).
Studies were performed in 6-8 week old female C57BL/6 mice (Charles River) or 8-10 week old CD-1 (Harlan) mice (Charles River) according to guidelines established by an institutional animal care committee (ACC) and the Canadian Council on Animal Care (CCAC). Varying doses of mRNA-lipid nanoparticle were systemically administered by tail vein injection and animals euthanized at a specific time point (e.g., 4 hours) post-administration. Liver and spleen were collected in pre-weighed tubes, weights determined, immediately snap frozen in liquid nitrogen and stored at −80° C. until processing for analysis.
For liver, approximately 50 mg was dissected for analyses in a 2 mL FastPrep tubes (MP Biomedicals, Solon OH). ¼″ ceramic sphere (MP Biomedicals) is added to each tube and 500 μL of Glo Lysis Buffer—GLB (Promega, Madison WI) equilibrated to room temperature is added to liver tissue. Liver tissues were homogenized with the FastPrep24 instrument (MP Biomedicals) at 2×6.0 m/s for 15 seconds. Homogenate was incubated at room temperature for 5 minutes prior to a 1:4 dilution in GLB and assessed using SteadyGlo Luciferase assay system (Promega). Specifically, 50 μL of diluted tissue homogenate was reacted with 50 μL of SteadyGlo substrate, shaken for 10 seconds followed by 5 minute incubation and then quantitated using a CentroXS^3 LB 960 luminometer (Berthold Technologies, Germany). The amount of protein assayed was determined by using the BCA protein assay kit (Pierce, Rockford IL). Relative luminescence units (RLU) were then normalized to total μg protein assayed. To convert RLU to ng luciferase a standard curve was generated with QuantiLum Recombinant Luciferase (Promega).
The FLuc mRNA (L-6107 or L-7202) from Trilink Biotechnologies will express a luciferase protein, originally isolated from the firefly, Photimus pyralis. FLuc is commonly used in mammalian cell culture to measure both gene expression and cell viability. It emits bioluminescence in the presence of the substrate, luciferin. This capped and poly-adenylated mRNA was fully substituted with respect to uridine and/or cytidine nucleosides.
Representative compounds of the disclosure shown in Table 2 were formulated using the following molar ratio: 50% cationic lipid/10% distearoylphosphatidylcholine (DSPC)/38.5% Cholesterol/1.5% PEG lipid 2-[2-(ω-methoxy(polyethyleneglycol2000)ethoxy]-N,N-ditetradecylacetamide) or 47.5% cationic lipid/10% DSPC/40.7% Cholesterol/1.8% PEG lipid. Relative activity was determined by measuring luciferase expression in the liver 4 hours following administration via tail vein injection as described in Example 1. The activity was compared at a dose of 1.0 or 0.5 or 0.3 mg mRNA/kg and expressed as ng luciferase/g liver measured 4 hours after administration, as described in Example 1. Compound numbers in Table 2 refer to the compound numbers of Table 1. […]

## CCCCC(CC)COC(=O)CCCCCCCCC(CCCCCCCCC(=O)OCC(CC)CCCC)N(CCCCN(C)C)C(=O)C(F)(F)C(F)(F)C(F)(F)C(F)(F)C(F)(F)C(F)(F)C(F)(F)F (centres unmarked) [Compound I-5, BIS(2-ETHYLHEXYL) 10-(N-(4-(DIMETHYLAMINO)BUTYL)-2,2,3,3,4,4,5,5,6,6,7,7,8,8,8-PENTADECAFLUOROOCTANAMIDO)NONADECANEDIOATE]
[1]
  pKa: 5.92
[2]
  Liver Luc (ng luc/g liver), determined at 0.3 mg/kg: 3645 ± 1347 ng luc/g liver
  efficacy toward activation of the Luciferase mRNA expression as compared with non-fluorinated analogue: increased efficacy
  Liver Luc (ng luc/g liver), determined at 1.0 mg/kg: 21585 ± 6204 ng luc/g liver

## CCCCCCCCC(CCCCCC)COC(=O)CCCCCC(CCCCCC(=O)OCC(CCCCCC)CCCCCCCC)N(CCCCN(C)C)C(=O)C(F)(F)C(F)(F)C(F)(F)C(F)(F)C(F)(F)C(F)(F)C(F)(F)F (centres unmarked) [Compound I-7, BIS(2-HEXYLDECYL) 7-(N-(4-(DIMETHYLAMINO)BUTYL)-2,2,3,3,4,4,5,5,6,6,7,7,8,8,8-PENTADECAFLUOROOCTANAMIDO)TRIDECANEDIOATE]
[1]
  pKa: 6.08
[2]
  Liver Luc @ 0.5 mg/kg (ng luc/g liver): 39 ± 14 ng luc/g liver

## CCCCCCCCC(CCCCCC)COC(=O)CCCCCC(CCCCCC(=O)OCC(CCCCCC)CCCCCCCC)N(CCN1CCN(C)CC1)C(=O)C(F)(F)C(F)(F)C(F)(F)C(F)(F)C(F)(F)C(F)(F)C(F)(F)F (centres unmarked) [Compound I-8, BIS(2-HEXYLDECYL) 7-(2,2,3,3,4,4,5,5,6,6,7,7,8,8,8-PENTADECAFLUORO-N-(2-(4-METHYLPIPERAZIN-1-YL)ETHYL)OCTANAMIDO)TRIDECANEDIOATE]
[1]
  pKa: 5.58
[2]
  Liver Luc @ 0.5 mg/kg (ng luc/g liver): 0 ng luc/g liver

## CCCCCCCCC(CCCCCC)COC(=O)CCCCCC(CCCCCC(=O)OCC(CCCCCC)CCCCCCCC)N(CCCCCN(C)C)C(=O)C(F)(F)C(F)(F)C(F)(F)C(F)(F)C(F)(F)C(F)(F)C(F)(F)F (centres unmarked) [Compound I-9, BIS(2-HEXYLDECYL) 7-(N-(5-(DIMETHYLAMINO)PENTYL)-2,2,3,3,4,4,5,5,6,6,7,7,8,8,8-PENTADECAFLUOROOCTANAMIDO)TRIDECANEDIOATE]
[1]
  pKa: 6.32
[2]
  Liver Luc @ 0.5 mg/kg (ng luc/g liver): 25 ± 16 ng luc/g liver

## CCCCCCC(CCCC)COC(=O)CCCCCC(CCCCCC(=O)OCC(CCCC)CCCCCC)N(CCCCN(C)C)C(=O)C(F)(F)C(F)(F)C(F)(F)C(F)(F)C(F)(F)C(F)(F)C(F)(F)F (centres unmarked) [Compound I-10, BIS(2-BUTYLOCTYL) 7-(N-(4-(DIMETHYLAMINO)BUTYL)-2,2,3,3,4,4,5,5,6,6,7,7,8,8,8-PENTADECAFLUOROOCTANAMIDO)TRIDECANEDIOATE]
[1]
  pKa: 6.18
[2]
  Liver Luc @ 0.5 mg/kg (ng luc/g liver): 62 ± 44 ng luc/g liver

## CCCCCCC(CCCC)COC(=O)CCCCCC(CCCCCC(=O)OCC(CCCC)CCCCCC)N(CCCCCN(C)C)C(=O)C(F)(F)C(F)(F)C(F)(F)C(F)(F)C(F)(F)C(F)(F)C(F)(F)F (centres unmarked) [Compound I-11, BIS(2-BUTYLOCTYL) 7-(N-(5-(DIMETHYLAMINO)PENTYL)-2,2,3,3,4,4,5,5,6,6,7,7,8,8,8-PENTADECAFLUOROOCTANAMIDO)TRIDECANEDIOATE]
[1]
  pKa: 6.28
[2]
  Liver Luc (ng luc/g liver), determined at 0.3 mg/kg: 3411 ± 803* ng luc/g liver
  efficacy toward activation of the Luciferase mRNA expression as compared with non-fluorinated analogue: increased efficacy
  Liver Luc (ng luc/g liver), determined at 1.0 mg/kg: 45575 ± 11088 ng luc/g liver

## CCCCCCCCC(CCCCCC)COC(=O)CCCCCC(CCCCCC(=O)OCC(CCCCCC)CCCCCCCC)N(CCCN(C)C)C(=O)CC(F)(F)F (centres unmarked) [Compound I-12, BIS(2-HEXYLDECYL) 7-(N-(3-(DIMETHYLAMINO)PROPYL)-3,3,3-TRIFLUOROPROPANAMIDO)TRIDECANEDIOATE]
[1]
  pKa: 6.22
[2]
  Liver Luc (ng luc/g liver), determined at 0.3 mg/kg: 138 ± 64* ng luc/g liver
  Liver Luc (ng luc/g liver), determined at 1.0 mg/kg: 559 ± 207 ng luc/g liver

## CCCCCCCCC(CCCCCC)COC(=O)CCCCCC(CCCCCC(=O)OCC(CCCCCC)CCCCCCCC)N(CCCN(C)C)C(=O)CCCC(F)(F)F (centres unmarked) [Compound I-13, BIS(2-HEXYLDECYL) 7-(N-(3-(DIMETHYLAMINO)PROPYL)-5,5,5-TRIFLUOROPENTANAMIDO)TRIDECANEDIOATE]
[1]
  pKa: 6.68
[2]
  Liver Luc @ 0.5 mg/kg (ng luc/g liver): 658 ± 262 ng luc/g liver

## CCCCCCCCC(CCCCCC)COC(=O)CCCCCCCCC(CCCCCCCCC(=O)OCC(CCCCCC)CCCCCCCC)N(CCCN(C)C)C(=O)CCCC(F)(F)F (centres unmarked) [Compound I-14, BIS(2-HEXYLDECYL) 10-(N-(3-(DIMETHYLAMINO)PROPYL)-5,5,5-TRIFLUOROPENTANAMIDO)NONADECANEDIOATE]
[1]
  pKa: 6.28
[2]
  Liver Luc @ 0.5 mg/kg (ng luc/g liver): 331 ± 127 ng luc/g liver

## CCCCCCC(CCCC)COC(=O)CCCCCC(CCCCCC(=O)OCC(CCCC)CCCCCC)N(CCCN(C)C)C(=O)CCCC(F)(F)F (centres unmarked) [Compound I-15, BIS(2-BUTYLOCTYL) 7-(N-(3-(DIMETHYLAMINO)PROPYL)-5,5,5-TRIFLUOROPENTANAMIDO)TRIDECANEDIOATE]
[1]
  pKa: 6.78
[2]
  Liver Luc @ 0.5 mg/kg (ng luc/g liver): 1007 ± 671 ng luc/g liver

## CCCCCCC(CCCC)COC(=O)CCCCCC(CCCCCC(=O)OCC(CCCC)CCCCCC)N(CCN(C)C)C(=O)CCCC(F)(F)F (centres unmarked) [Compound I-16, BIS(2-BUTYLOCTYL) 7-(N-(2-(DIMETHYLAMINO)ETHYL)-5,5,5-TRIFLUOROPENTANAMIDO)TRIDECANEDIOATE]
[1]
  pKa: 5.97
[2]
  Liver Luc @ 0.5 mg/kg (ng luc/g liver): 1233 ± 305 ng luc/g liver

## CCCCCCCC(F)C(=O)N(CCCN1CCCC1)C(CCCCCCCCC(=O)OCC(CCCC)CCCCCC)CCCCCCCCC(=O)OCC(CCCC)CCCCCC (centres unmarked) [Compound I-22, BIS(2-BUTYLOCTYL) 10-(2-FLUORO-N-(3-(PYRROLIDIN-1-YL)PROPYL)NONANAMIDO)NONADECANEDIOATE]
[1]
  pKa: 5.96
[2]
  Liver Luc (ng luc/g liver), determined at 0.3 mg/kg: 10062 ± 2580 ng luc/g liver
  Liver Luc (ng luc/g liver), determined at 1.0 mg/kg: 82847 ± 27713 ng luc/g liver

## CCCCCCCCCCN(C(=O)C(F)CCCN(C)C)C(CCCCCCCCC(=O)OCC(CCCC)CCCCCC)CCCCCCCCC(=O)OCC(CCCC)CCCCCC (centres unmarked) [Compound I-24, BIS(2-BUTYLOCTYL) 10-(N-DECYL-5-(DIMETHYLAMINO)-2-FLUOROPENTANAMIDO)NONADECANEDIOATE]
[1]
  pKa: 6.04
[2]
  Liver Luc (ng luc/g liver), determined at 0.3 mg/kg: 9411 ± 1733 ng luc/g liver
